Measurements: US20080076824A1, “Compounds That Inhibit Replication Of Human Immunodeficiency Virus” (priority 2004, published 2008)

Columns and labels:
[1] = Conversion of [14C]G-NH2 by Phaseolus vulgaris root nodule extract; type: biochemical; settings: overnight, 37° C.
Description: An extract from Phaseolus vulgaris root nodule was prepared as follows: approximately 20 g of root nodules of 3-4 week old kidney beans (Phaseolus vulgaris) were removed, washed with potassium phosphate buffer 50 mM pH 8.0 and homogenized with 30 ml buffer. Then, the homogenate was sonicated (3×20 sec) on ice, and centrifuged for 15 min, 4° C. at 3,000 rpm. The supernatant was then centrifuged at 15,000 rpm during 20 min at 4° C., aliquoted and stored at −80° C. before use. To the reaction mixture (50 mM potassium phosphate buffer pH 8.0) was added: 0.1 μCi [^14C]G-NH2 and 50 μl extract supernatant (100%, 50% and 20%) and 50 μl buffer. The reaction proceeded overnight (˜18 hrs) at 37° C. Then, methanol was added (200 μl) to stop the reaction and the reaction mixture was subjected to cation exchange column chromatography, as described above. A reaction mixture containing bovine serum was also evaluated as a control.

[2] = Conversion of [14C]G-NH2 to Metabolite X by sera of different animals; type: in vitro ADME
Description: Next, an evaluation of sera obtained from other animals was analyzed for their ability to convert G-NH2 to modified G-NH2. Serum obtained from pigs (PS), mice (MS), dogs (CS), cats (FS), horse (ES), and monkey (SS) was incubated with HPLC purified G-NH2 and at 15 minutes, 1 hour, 6 hours, and/or 24 hours an aliquot of the mixture was removed and analyzed by cation exchange HPLC, as described above. Approximately a 10% dilution of serum in PBS was used.
Approximately, 0.1 μCi [^14C]G-NH2 ([…]) is added to a reaction mixture containing 10% serum in phosphate-buffered saline (PBS) (pH 7.5) (total volume: 100 μl). The reaction was carried out for different time periods. Sera, used in the study were from human, murine (mouse and rat), avian (chicken), rabbit, simian, feline, canine, porcine, equine or bovine (cow) origin. At the completion of the time period for each reaction, approximately 200 μl cold methanol was added to stop the reaction and the samples were placed on ice for 10 minutes. Subsequently, the samples were subjected to centrifugation (5 min, 15000 rpm). The supernatants were then injected on a Cation Exchange Column (Whatman) (Partisphere-SCX) and G-NH2 and Metabolite X were separated on a gradient of ammonium phosphate buffer 5 mM pH 3.5 (Buffer A) and ammonium phosphate buffer 0.300 M pH 3.5 (Buffer B) [10 min A+6 min to 83% B+17% H2O) (C)+2 min C-+6 min to A)]. […]

[3] = Conversion of radiolabeled G-NH2 to modified G-NH2 by human sera; type: in vitro ADME; settings: 10% human serum in PBS, 37° C., 24 hours, each of 10 samples
Description: Several lots of human sera and fetal bovine sera were analyzed for their ability to convert G-NH2 to modified G-NH2. Radiolabeled cation exchange HPLC purified G-NH2 (see EXAMPLE 3) was incubated with the various sera at a 10% final concentration in PBS at 37° C. for 15 minutes and 1, 6, 24, or 72 hours. Subsequently, the amount of radiolabeled modified G-NH2 was evaluated using the cation exchange HPLC approach described above.

[4] = test system: C8166 cells; assay: Cytotoxicity (CC50) in C8166 cells; type: cell-based
[5] = test system: HIV (SF2 virus); assay: HIV infectivity assay, SF2-infected H9 cells, visible syncytia; type: cell-based; settings: for Visible syncytia: H9/SF2, day 11

## NCC(N)=O [G-NH2, glycinamide]
[1]
  conversion of glycinamide to modified glycinamide: efficiently converts glycinamide to modified glycinamide
[2]; human, mouse, rat, and avian sera
  conversion to modified glycinamide: did not effectively catalyze
[2]; rabbit, simian, feline, canine, porcine, equine and bovine sera
  conversion to Metabolite X: readily converted to Metabolite X
[3]
  conversion of G-NH2 to modified G-NH2: less than 10%
[4]
  CC50: > 2000 µM
[5]; 100 μM in boiled RPMI++
  Visible syncytia: positive
[5]; 100 μM in normal RPMI++ (10% FCS)
  Visible syncytia: negative
[5]; boiled fetal calf serum
  inhibition of replication and/or propagation of HIV by visual inspection: did not
